Experimental findings from patent US20230233515A1, “PHOTODYNAMIC ANTI-GRAM-POSITIVE BACTERIAL ACTIVITY OF PHARMACEUTICAL-GRADE ROSE BENGAL” (priority 2021, published 2023) are described below.

Usually MIC stands for the least concentration at which growth counts as inhibited.

Assay [1] concerns M.smegmatis 607™ (RB mutant). Type of assay: cell-based, Mycobacterium smegmatis. The settings on record: for MIC (µg/mL) against M.smegmatis 607™ (RB mutant): triplicate.
For assay [2], the system named is M.smegmatis 607™ (wild-type). In words: MIC against M.smegmatis, dark. The settings on record: dark condition, triplicate. Type of assay: cell-based, Mycobacterium smegmatis.
Assay [3] has as its system biofilms of S.aureus 6508. The experiment in a line: Anti-biofilm assay. Type of assay: cell-based, Staphylococcus aureus. As to conditions: linezolid at 600 µg/mL, compared with RB 30.0 µg/mL. On the procedure: We applied linezolid as a positive control at very high concentration of 600 µg/mL (>100xMIC for the planktonic cells) in our biofilm assays.
The biofilms were generated on 12-well plates by incubating each bacterium for five days. The planktonic bacteria in the culture media were gently removed, and fresh media were placed. […] An aliquot of each culture was diluted (x10,000 or x100,000) on agar plates at 37° C. for 24 h. CFU/mL was counted.

Converted amounts (≈) assume the structure as drawn. Like-named read-outs stand apart in the source and are kept apart here.

Regarding `NC[C@H]1O[C@@H](O[C@H]([C@H]2O[C@@H](n3ccc(=O)[nH]c3=O)[C@H](O)[C@@H]2O)[C@H](NCCCC(=O)NCc2ccc(N3CCC(Oc4ccc(OC(F)(F)F)cc4)CC3)cc2)C(N)=O)[C@H](O)[C@@H]1O` [APPB, aminouridyl phenoxypiperidinylbenzyl butanamide], in assay [1] (dark condition), the “susceptibility of the RB-resistant strain to the drug” value (“susceptibility” for short) is given as “susceptible” and the “MIC (µg/mL) against M.smegmatis 607™ (RB mutant)” value was determined as 0.20 µg/mL (≈ 0.227 µM). In assay [2], the “MIC (µg/mL) against M.smegmatis 607™ (wild-type)” value turned out to be 0.20 µg/mL (≈ 0.227 µM).

Consider `NCC[C@H](O)C(=O)N[C@@H]1C[C@H](N)[C@@H](O[C@H]2O[C@H](CN)[C@@H](O)[C@H](O)[C@H]2O)[C@H](O)[C@H]1O[C@H]1O[C@H](CO)[C@@H](O)[C@H](N)[C@H]1O` [Amikacin, amikacin], for which the “susceptibility” value in assay [1] (dark condition) is “susceptible”. In assay [2] (Mycolicibacterium smegmatis), this compound gave an MIC of 0.78 µg/mL (≈ 1.33 µM).

As for `CCc1cc(C(N)=S)ccn1` [Ethionamide, ethionamide], in assay [1], the “susceptibility” value is given as “susceptible”.

Consider `NNC(=O)c1ccncc1` [Isoniazid, isoniazid], for which the “susceptibility” value in assay [1] (dark condition) is “cross-resistance”.

In the case of `CC(=O)NC[C@H]1CN(c2ccc(N3CCOCC3)c(F)c2)C(=O)O1` [linezolid, reference compound], the biofilm eradication efficacy result in assay [3] is “same level of efficacy”.

As for capreomycin, in assay [1] (dark condition), the “susceptibility” value is on record as “susceptible” and the “MIC (µg/mL) against M.smegmatis 607™ (RB mutant)” value was 3.13 µg/mL. Further, in assay [2], the “MIC (µg/mL) against M.smegmatis 607™ (wild-type)” value is given as 3.13 µg/mL.
